Reference: patent publication US20240299406A1, “NEURONAL NICOTINIC ACETYLCHOLINE RECEPTOR PARTIAL AGONISTS AS THERAPEUTICS FOR CHRONIC TINNITUS” (Board of Trustees of Southern Illinois University, priority 2019, published 2024)
“Also recorded” adds a separate entry of the source.

Assays:
[1] = test system: rats with behavioral evidence of tinnitus; experiment: operant conditioned-suppression behavioral test for tinnitus (suppression ratio, 20 kHz test series); type: in vivo, Long Evans rats; details: 0.5 mg/kg; 12 animals with tinnitus compared to 8 unexposed controls
α7 nAChRs [2] = target: T1, α7 nAChRs (Homo sapiens, UniProt P36544); details: cited from earlier work
T1 sequence (P36544 23-502): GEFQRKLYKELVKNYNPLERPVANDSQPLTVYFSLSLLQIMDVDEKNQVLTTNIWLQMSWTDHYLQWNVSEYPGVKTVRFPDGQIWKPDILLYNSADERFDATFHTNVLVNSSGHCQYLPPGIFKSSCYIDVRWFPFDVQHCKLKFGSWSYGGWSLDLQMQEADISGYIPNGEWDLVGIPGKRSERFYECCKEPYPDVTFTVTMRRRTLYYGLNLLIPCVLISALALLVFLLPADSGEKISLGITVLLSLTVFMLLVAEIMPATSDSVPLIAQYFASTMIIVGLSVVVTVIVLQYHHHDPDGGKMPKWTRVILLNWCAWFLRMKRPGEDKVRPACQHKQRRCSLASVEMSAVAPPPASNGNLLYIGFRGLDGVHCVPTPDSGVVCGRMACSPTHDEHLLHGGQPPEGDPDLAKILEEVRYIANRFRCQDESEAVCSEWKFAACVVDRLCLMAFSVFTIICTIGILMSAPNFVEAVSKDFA

α3β4 nAChRs [3] = target: T2, α3β4 nAChRs (Homo sapiens, UniProt P30926+P32297); details: cited from earlier work
T2 sequence (P32297 32-505): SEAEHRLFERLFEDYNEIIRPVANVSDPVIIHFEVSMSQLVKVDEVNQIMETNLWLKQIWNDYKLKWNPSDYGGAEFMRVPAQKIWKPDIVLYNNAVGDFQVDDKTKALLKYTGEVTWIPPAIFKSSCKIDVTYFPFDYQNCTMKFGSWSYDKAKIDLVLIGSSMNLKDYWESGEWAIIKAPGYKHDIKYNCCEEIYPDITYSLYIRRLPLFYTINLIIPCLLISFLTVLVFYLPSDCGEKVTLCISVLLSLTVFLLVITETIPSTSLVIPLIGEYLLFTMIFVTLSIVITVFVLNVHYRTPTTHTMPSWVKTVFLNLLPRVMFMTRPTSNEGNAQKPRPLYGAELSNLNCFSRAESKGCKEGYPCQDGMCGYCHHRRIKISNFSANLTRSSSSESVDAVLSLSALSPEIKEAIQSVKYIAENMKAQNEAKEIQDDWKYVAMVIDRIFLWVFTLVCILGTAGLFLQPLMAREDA
T2 sequence (P30926 22-498): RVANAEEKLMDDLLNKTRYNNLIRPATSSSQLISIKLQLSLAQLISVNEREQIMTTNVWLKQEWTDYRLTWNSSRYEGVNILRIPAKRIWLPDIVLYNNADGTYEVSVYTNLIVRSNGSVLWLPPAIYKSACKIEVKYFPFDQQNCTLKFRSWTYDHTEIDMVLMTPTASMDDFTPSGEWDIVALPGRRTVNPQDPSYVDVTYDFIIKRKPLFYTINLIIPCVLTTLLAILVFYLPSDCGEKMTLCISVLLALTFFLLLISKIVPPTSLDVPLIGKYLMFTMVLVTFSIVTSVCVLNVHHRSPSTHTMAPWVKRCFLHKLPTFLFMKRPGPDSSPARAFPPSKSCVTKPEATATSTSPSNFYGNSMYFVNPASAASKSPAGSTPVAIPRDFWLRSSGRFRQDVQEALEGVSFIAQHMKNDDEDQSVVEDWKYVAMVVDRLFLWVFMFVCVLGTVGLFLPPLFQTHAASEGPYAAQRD

α7 nAChRs [4] = target: T1, α7 nAChRs; details: cited from earlier work; remark: listed apart in the source
α3β4 nAChRs [5] = target: T2, α3β4 nAChRs; details: at lower affinity; cited from earlier work
α4β2 nAChRs = α4β2 nAChRs (Homo sapiens, UniProt P17787+P43681); details: cited from earlier work; for affinity for β2-containing nAChRs: partial nAChR agonists
Chain of α4β2 nAChRs (P43681 29-627 limits assumed): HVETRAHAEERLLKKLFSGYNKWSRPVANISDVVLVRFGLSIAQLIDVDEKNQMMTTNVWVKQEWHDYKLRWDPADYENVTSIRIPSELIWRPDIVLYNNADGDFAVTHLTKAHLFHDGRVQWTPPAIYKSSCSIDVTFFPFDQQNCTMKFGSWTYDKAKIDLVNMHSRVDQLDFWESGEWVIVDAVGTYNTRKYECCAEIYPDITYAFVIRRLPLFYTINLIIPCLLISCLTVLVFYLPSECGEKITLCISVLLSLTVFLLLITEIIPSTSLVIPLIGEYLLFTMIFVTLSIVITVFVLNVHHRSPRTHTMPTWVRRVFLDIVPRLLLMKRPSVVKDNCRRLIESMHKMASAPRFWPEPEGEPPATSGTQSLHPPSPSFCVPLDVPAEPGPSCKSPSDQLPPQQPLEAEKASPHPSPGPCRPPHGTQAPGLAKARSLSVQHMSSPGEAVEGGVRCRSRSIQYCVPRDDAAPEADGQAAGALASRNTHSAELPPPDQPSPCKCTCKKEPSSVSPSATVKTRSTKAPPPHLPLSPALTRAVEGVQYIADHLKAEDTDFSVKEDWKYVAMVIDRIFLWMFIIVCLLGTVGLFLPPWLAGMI
Chain of α4β2 nAChRs (P17787 26-502): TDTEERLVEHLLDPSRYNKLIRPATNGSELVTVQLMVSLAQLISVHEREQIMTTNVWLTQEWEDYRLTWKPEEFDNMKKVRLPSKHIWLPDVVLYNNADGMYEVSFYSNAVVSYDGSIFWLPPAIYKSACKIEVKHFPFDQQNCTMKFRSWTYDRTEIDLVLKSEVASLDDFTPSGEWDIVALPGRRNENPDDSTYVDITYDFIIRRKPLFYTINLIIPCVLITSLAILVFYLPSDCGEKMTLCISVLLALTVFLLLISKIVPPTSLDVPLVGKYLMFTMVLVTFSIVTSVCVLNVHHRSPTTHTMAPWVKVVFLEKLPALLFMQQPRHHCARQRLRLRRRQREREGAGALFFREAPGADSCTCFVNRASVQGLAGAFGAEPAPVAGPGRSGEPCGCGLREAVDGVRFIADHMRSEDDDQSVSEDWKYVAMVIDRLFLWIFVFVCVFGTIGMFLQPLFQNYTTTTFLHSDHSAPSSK

[6] = test system: rats with behavioral evidence of tinnitus; experiment: operant conditioned-suppression behavioral test for tinnitus (suppression ratio, 20 kHz test series); type: in vivo, Long Evans rats; details: for evidence of tinnitus: SC injection
Source text: Unilaterally sound-exposed animals were used to study the effects of sazetidine on tinnitus. Experiments used an established behavioral psychoacoustic test to determine whether sazetidine could ameliorate tinnitus in subjects (rats) with behavioral evidence of tinnitus. Three months following sound-exposure, animals with tinnitus show consistent difficulty identifying silence. Sounds of varying intensity/levels were presented to sound-exposed (tinnitus) and unexposed (non-tinnitus control) subjects. The animals' behavior, quantified as a suppression ratio, indicated their level of tinnitus. Greater suppression, i.e., a decrease in lever pressing, indicates the presence of tinnitus.
The present study examined the potential therapeutic effect of sazetidine and varenicline to ameliorate tinnitus in rats with behavioral evidence of tinnitus. For two decades, an operant-behavior model has been used to investigate tinnitus pathology. In this model, animals are taught to attend closely to their auditory sensations using a conditioned suppression procedure: Animals lever press for food pellets in the presence of low-level background sounds, randomly punctuated by sound-off (silence) periods. Sound-off (silence) lever pressing earns food pellets but leads to a mild foot shock at the conclusion of the sound off presentation. The animals are therefore conditioned to stop lever pressing when the external sound is off, i.e., conditioned suppression. In this paradigm, the animals are conditioned to attend to their sound environment, and when tones of different frequencies and levels/intensities are substituted for some of the sound-off periods, the attendant behavior can be used to derive psychometric functions indicative of tinnitus.
Sixteen, 96-day old Long Evans rats (Envigo, Indianapolis, IN, USA) were anesthetized with a 1.7 percent isoflurane/02 mixture, placed in a head holder. A Fostex speaker (FT17H, Akashima, Japan) was attached to a 2 cm length of flexible tubing positioned at the entrance of the right ear canal. Eight randomly selected rats were unilaterally exposed once to band-limited noise for 1 hr, with a peak level of 120 dB (SPL) centered at 16 kHz, falling to ambient levels at 8 kHz and 24 kHz. During sound-exposure, the contralateral canal was obstructed by a canal-fitted plastic plug/tube from the contralateral speaker. Auditory brainstem responses (ABRs), which measure hearing, were obtained before and after exposure for pure tones at 8, 10, 12, 16, 20, 24, and 32 kHz, presented in 10 dB decrements between 95 and 5 dB (SPL re […]). Eight unexposed animals were similarly tested. Tinnitus testing began 3 months following sound-exposure and hearing-level determination.
Sazetidine A dihydrochloride (batch 2A/187725) was obtained in solid form, from Tocris Bioscience (Minneapolis, MN, USA). The drug was dissolved in sterile normal saline at a concentration of 2 mg/ml, or less, and administered as a subcutaneous injection (SC) 1 hour prior to behavioral testing.
Varenicline, varenicline tartrate, was purchased from Santa Cruz Biotechnology, Inc. (Dallas, Texas, USA). The drug was dissolved in sterile normal saline at a concentration of 1 mg/ml, or less, and administered as a SC injection 1 hour prior to behavioral testing.
(§1) Sterile normal saline was considered a pharmaceutically acceptable carrier, but other pharmaceutically acceptable carriers may also be used as a substitute. All animals, unexposed controls and sound-exposed, were drug treated and tested in parallel. […] Dose levels of 0.1, 0.5, and 1 mg/kg were tested for therapeutic effect, over a minimum of 3 consecutive days for each dose level. Washout periods of 1 to 5 weeks (5 test sessions per week) intervened between drug-testing, as required to recover pre-drug baseline tinnitus performance.
Prior to the start of drug testing, each group was optimized to five rats per group. […]

[7] = non-specific drug effects (cage observation, session lever pressing); type: in vivo, rats
Experimental: FIG. 10 illustrates the data for a non-specific effect. The non-specific effects appeared 10 to 15 min after treatment but were not present 1 hr after treatment, i.e., at the beginning of the test period.
as §1
At 1 mg/kg. […] Within 10 min of drug treatment all animals assumed a prone resting position in their home cage, which lasted about 10 min. Afterward animals resumed normal cage activity, e.g., moving about, grooming, sniffing. […] This behavior was not observed in washout or saline (vehicle) sessions, nor was it observed in the remaining 15 animals. Mild sedation was indicated by a decrease in total bar pressing at 1.0 mg/kg (FIG. 10).

c1cnc2cc3c(cc2n1)C1CNCC3C1 [varenicline, 7,8,9,10-tetrahydro-6,10-methano-6H-pyrazino[2,3-h][3]-benzazepine]
reduction of evidence of tinnitus [1]: 47%
type of action at α7 nAChRs (α7 nAChRs [2]): full agonist activity
selectivity for α4β2 nAChRs compared to α3β4 nAChRs (α3β4 nAChRs [3]): 4,000-5,000 fold
selectivity for α4β2 nAChRs relative to α7 nAChRs (α7 nAChRs [4]): 4,000-5,000 fold
type of action at α3β4 nAChRs (α3β4 nAChRs [5]): partial agonist actions
concentration that desensitizes α4β2 nAChRs (α4β2 nAChRs): low nanomolar concentrations
affinity for β2-containing nAChRs (α4β2 nAChRs): very high affinity
suppression curve of tinnitus animals versus unexposed control animals ([6]; 0.5 mg/kg SC, FIG. 13): no longer significantly different
linearity of tinnitus reduction across doses ([6]; doses between 0.1 and 1.0 mg/kg): not-linear

OCCCCC#Cc1cncc(OC[C@@H]2CCN2)c1 [sazetidine]
sedation (decrease in total bar pressing) ([7]; 1.0 mg/kg, FIG. 10): Mild sedation
excess salivation, share of animals ([7]; 1.0 mg/kg, visual evidence): about a third of the animals
non-specific effects at the beginning of the test period ([7]; 1 hr after treatment, FIG. 10): not present
non-specific drug effects ([7]; FIG. 10): evident at 1 mg/kg
time of appearance of non-specific effects after treatment ([7]; FIG. 10): 10 to 15 min
time to prone resting position in home cage, all animals ([7]; after drug treatment): ≤ 10 min
sedation (decrease in session lever pressing) ([7]; higher doses, FIG. 10): some general sedation
duration of prone resting position ([7]; rat, in vivo): about 10 min
drug-dependent agitation, animals affected ([7]; sound-exposed animal without evidence of tinnitus): One animal (out of 16)
selectivity for α4β2 nAChRs compared to α3β4 nAChRs (α3β4 nAChRs [3]): > 20,000 fold
selectivity for α4β2 nAChRs relative to α7 nAChRs (α7 nAChRs [4]): 3,500 fold
concentration that desensitizes α4β2 nAChRs (α4β2 nAChRs): low nanomolar concentrations
affinity for β2-containing nAChRs (α4β2 nAChRs): very high affinity
therapeutic effect on tinnitus ([6]; 0.1 mg/kg SC, FIG. 9): potentially weak therapeutic effect
tinnitus dose-response (tinnitus suppression ratio) ([6]; 0.1 mg/kg to 1.0 mg/kg SC, FIG. 11): Therapeutic effect increased with dose; also recorded: effectiveness increases as the dose is increased
suppression curve of tinnitus animals versus unexposed control animals ([6]; 0.5 mg/kg SC, FIG. 8): no longer significantly different
suppression curve of tinnitus animals versus unexposed control animals ([6]; 1 mg/kg SC, first test, FIG. 2): no longer significantly different
suppression curve of tinnitus animals versus unexposed control animals ([6]; 1 mg/kg SC, second test (1st replication), FIG. 5): again no longer significantly different
therapeutic effect on tinnitus ([6]; 1 mg/kg SC, third test (2nd replication), one week after 1st replication, FIG. 6): No therapeutic effect was observed
evidence of tinnitus ([6]; 0.1 mg/kg): significantly reduced evidence of tinnitus
evidence of tinnitus ([6]; 0.5 mg/kg): effectively and significantly decreased evidence of tinnitus
evidence of tinnitus ([6]; 1 mg/kg): effectively and significantly decreased evidence of tinnitus
dose level at which statistical effectiveness begins ([6]; SC, FIG. 11): about 0.5 mg/kg
suppression curve of tinnitus animals versus unexposed control animals ([6]; five weeks following initial treatment, saline SC before test, FIG. 4): again statistically significantly different
suppression curve of tinnitus animals versus unexposed control animals ([6]; one week following initial treatment, washout, FIG. 3): remain similar to control
tinnitus-related symptoms/lever pressing ([6]; treatment 1 hour before testing): decreased tinnitus-related symptoms/lever pressing
